# According to PMC11396667, “Design, Synthesis, and Anticancer and Antibacterial Activities of Quinoline-5-Sulfonamides” (Molecules, 2024):
# Columns and labels:
# [1] = test system: methicillin-resistant S. aureus SA 630; assay: MBC, agar aliquot subculture method, MRSA2; assay type: cell-based; settings: Staphylococcus aureus; 99.9% decrease in CFU, 24 h, 37 °C
# From the text: (§1) The activities of the individual derivatives were expressed as minimum inhibitory concentrations (MICs) and minimum bactericidal concentrations (MBCs) and are shown in Table 3 together with the values of the antibiotics used as standards for comparison. […] MBC values of bactericidal compounds are indicated in bold in Table 3.
# (§2) For the above-mentioned strains/isolates, the agar aliquot subculture method was used as a test for bactericidal agents. After the MIC value determination, the inoculum was transferred to CaMH (Oxoid) for staphylococci, and BHI (Oxoid) for enterococci medium using a multipoint inoculator. The plates were incubated in a thermostat at 37 °C for 24 h. The lowest concentration of test compound at which ≤5 colonies were obtained was then evaluated as MBC, corresponding to a 99.9% decrease in CFU relative to the original inoculum.
# [2] = test system: Staphylococcus aureus ATCC 29213; assay: MBC, agar aliquot subculture method, SA; assay type: cell-based; settings: ATCC29213, 99.9% decrease in CFU, 24 h, 37 °C
# From the text: as §1, §2
# S. aureus ATCC 29213 = assay: MTT assay of bacterial respiratory activity; assay type: cell-based, Staphylococcus aureus; settings: S. aureus ATCC 29213
# From the text: The MTT assay can be used to assess cell growth by measuring respiration. Bacterial cell respiratory activity (which is ultimately reflected in their viability) of less than 70% after exposure to the MIC values for each test compound is considered as a positive result for this test. This low level of cellular oxidative metabolism indicates inhibition of cell growth by inhibition of respiration. The lowest multiples of the MIC values by which inhibition of S. aureus ATCC 29213 viability [%] greater than 70% was achieved are shown in Table 4. […] Therefore, the antibacterial activity of the discussed compounds cannot be explained solely on the basis of respiration inhibition, so it is very difficult to draw a conclusion regarding the actual mechanism of action, since 8-HQs are multi-target agents, i.e., they affect several different targets at once (as discussed in the section dedicated to anticancer activity), which subsequently leads to the death of the treated resistant microorganisms.
# Compounds were prepared as previously stated and diluted in CaMH broth for S. aureus to achieve the desired final concentrations. S. aureus bacterial suspension in sterile distilled water at 0.5 McFarland was diluted 1:3. Inocula were added to each well by multi-inoculator. Diluted mycobacteria in broth free from inhibiting compounds were used as the growth control. All compounds were prepared in duplicate. Plates were incubated at 37 °C for 24 h for S. aureus. After the incubation period, 10% well volume of MTT (3-(4,5-dimethylthiazol-2-yl)-2,5-diphenyltetrazolium bromide) reagent (Sigma) was mixed into each well and incubated at 37 °C 1 h for S. aureus. Then, 100 µL of 17% sodium dodecyl sulphate in 40% dimethylformamide was added to each well. The plates were read at 570 nm. The absorbance readings from the cells grown in the presence of the tested compounds were compared with uninhibited cell growth to determine the relative percent inhibition. The percent inhibition was determined through MTT assay. The percent viability is calculated through the comparison of a measured value and that of the uninhibited control: % viability = OD570E/OD570P × 100, where OD570E is the reading from the compound-exposed cells, while OD570P is the reading from the uninhibited cells (positive control). Cytotoxic potential is determined by a percent viability of <70% [81, 82].
# [3] = test system: methicillin-resistant S. aureus SA 3202; assay: MIC, microtitration broth method, MRSA1; assay type: cell-based; settings: Staphylococcus aureus; 24 h, 37 °C, CaMH broth
# From the text: (§3) Since there is a general decrease in immunity during the treatment of oncological patients, i.e., patients are more susceptible to infectious diseases, it is advantageous if anticancer agents show antimicrobial properties at the same time. Therefore, the effects of the compounds were also investigated against Gram-positive bacteria. For this purpose, the susceptible collection strains of aerobic Staphylococcus aureus ATCC 29213 and facultatively aerobic Enterococcus faecalis ATCC 29212 and resistant clinical isolates of methicillin-resistant S. aureus (MRSA) SA 3202, SA 630 carrying the mecA gene, and vancomycin-resistant isolates of E. faecalis (VRE) 342B, 368, and 725B carrying the vanA gene were selected. Thus, the selection of the studied bacterial strains was adopted following the CLSI ([…]) international reference methodologies.
# (§4) The in vitro antibacterial activity of the synthesized compounds was evaluated against representatives of multidrug-resistant bacteria, […] clinical isolates of methicillin-resistant S. aureus: clinical isolates of human origin, MRSA SA 3202, and MRSA SA 630 (National Institute of Public Health, Prague, Czech Republic), carrying the mecA gene. These two clinical isolates were classified as vancomycin-susceptible (but with a higher MIC of vancomycin equal to 2 μg/mL (VA2-MRSA). Vancomycin- and methicillin-susceptible S. aureus ATCC 29213 and vancomycin-susceptible Enterococcus faecalis ATCC 29212, obtained from the American Type Culture Collection, were used as the reference and quality control strains. Three vanA gene-carrying vancomycin-resistant isolates of E. faecalis (VRE 342B, VRE 368, VRE 725B) (Department of Infectious Diseases and Microbiology, Faculty of Veterinary Medicine, University of Veterinary Sciences Brno, Czech Republic) were provided by Oravcova et al..
# (§5) The minimum inhibitory concentrations (MICs) were evaluated by the microtitration broth method according to the CLSI, with some modifications. The compounds were dissolved in DMSO (Sigma, St. Louis, MO, USA) to obtain a concentration of […] and diluted in a microtitration plate in an appropriate medium, i.e., Cation-Adjusted Mueller–Hinton Broth (CaMH, Oxoid, Basingstoke, UK) for staphylococci, and Brain Heart Infusion Broth (BHI, Oxoid) for enterococci to reach the final concentration of 256–0.125 µg/mL. Microtiter plates were inoculated with test microorganisms so that the final concentration of bacterial cells was 10^5. Ampicillin, oxacillin, and ciprofloxacin (Sigma) were used as reference drugs. A drug-free control and a sterility control were included. The plates were incubated for 24 h at 37 °C for staphylococci and enterococci. […] The experiments were repeated three times.
# [4] = test system: Enterococcus faecalis ATCC 29212; assay: MIC, microtitration broth method, EF; assay type: cell-based; settings: ATCC29212, 24 h, 37 °C, BHI broth
# From the text: as §3, §4, §5
# [5] = test system: Enterococcus faecalis ATCC 29212; assay: MBC, agar aliquot subculture method, EF; assay type: cell-based; settings: ATCC29212, 99.9% decrease in CFU, 24 h, 37 °C
# From the text: as §1, §2
# [6] = test system: methicillin-resistant S. aureus SA 3202; assay: MBC, agar aliquot subculture method, MRSA1; assay type: cell-based; settings: Staphylococcus aureus; 99.9% decrease in CFU, 24 h, 37 °C
# From the text: as §1, §2
# [7] = test system: methicillin-resistant S. aureus SA 630; assay: MIC, microtitration broth method, MRSA2; assay type: cell-based; settings: Staphylococcus aureus; 24 h, 37 °C, CaMH broth
# From the text: as §3, §4, §5
# [8] = test system: Staphylococcus aureus ATCC 29213; assay: MIC, microtitration broth method, SA; assay type: cell-based; settings: ATCC29213, 24 h, 37 °C, CaMH broth
# From the text: as §3, §4, §5
# [9] = test system: methicillin-resistant S. aureus SA 3202; set-up: method as in PMID 25692135; settings: isolate classified as vancomycin-susceptible (VA2-MRSA); ref [76]; cited from earlier work
# [10] = test system: methicillin-resistant S. aureus SA 630; set-up: method as in PMID 25692135; settings: isolate classified as vancomycin-susceptible (VA2-MRSA); ref [76]; cited from earlier work
Conc.: lowest multiple of MIC with at least 70% inhibition of respiratory activity (S. aureus ATCC 29213),MIC [4],Structure (SMILES),MBC [1],MBC [2],MIC [3],MBC [5],MBC [6],MIC [7],MIC [8],"MIC of vancomycin, MRSA SA 3202 [9]","MIC of vancomycin, MRSA SA 630 [10]"
16× MIC (>16× MBC),2.81 µM,"CC1(C)S[C@@H]2[C@H](NC(=O)[C@H](N)c3ccccc3)C(=O)N2[C@H]1C(=O)O [AMP, ampicillin, reference compound]",> 45.8 µM,5.72 µM,> 45.8 µM,2.81 µM,> 45.8 µM,> 45.8 µM,5.72 µM,–,–
–,–,"Cc1onc(-c2ccccc2)c1C(=O)N[C@@H]1C(=O)N2[C@@H]1SC(C)(C)[C@@H]2C(=O)O [OXA, oxacillin, reference compound]",29.7 µM,1.25 µM,79.8 µM,–,79.8 µM,29.7 µM,1.25 µM,–,–
–,–,CN[C@H](CC(C)C)C(=O)N[C@H]1C(=O)N[C@@H](CC(N)=O)C(=O)N[C@H]2C(=O)N[C@H]3C(=O)N[C@H](C(=O)N[C@H](C(=O)O)c4cc(O)cc(O)c4-c4cc3ccc4O)[C@H](O)c3ccc(c(Cl)c3)Oc3cc2cc(c3O[C@@H]2O[C@H](CO)[C@@H](O)[C@H](O)[C@H]2O[C@H]2C[C@](C)(N)[C@H](O)[C@H](C)O2)Oc2ccc(cc2Cl)[C@H]1O [vancomycin],–,–,–,–,–,–,–,2 µg/mL,2 µg/mL
